20 compounds from patent US9433622B2, “Pyrimidine compounds useful in the treatment of diseases mediated by IKKE and/or TBK1 mechanisms” (DOMAINEX LIMITED, priority 2013, dated 2016) can be followed below.

By IC50 is commonly meant the concentration needed to halve the response being measured.

In one experiment the target is IKKε (Homo sapiens (Human), UniProt Q14164). Kind of experiment: Lanthascreen TR-FRET kinase inhibition assay, IKKε. Format: biochemical. To be noted: 20 μM ATP (apparent Km), 2 nM kinase, 1 h. A digest of the protocol: (§1)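 TR-FRET: terbium phosphospecific antibody detects phosphorylation of 400 nM fluorescein-IkBα peptide, 20 μM ATP, 20 °C, HEPES pH 7.5 with 3% DMSO. IKKε at 2 nM, 1 h reaction; TBK1 at 8 nM, 2.5 h reaction; started by kinase addition.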

Another experiment has as its target TBK1 (Homo sapiens (Human), UniProt Q9UHD2). The experiment in a line: Lanthascreen TR-FRET kinase inhibition assay, TBK1. Format: biochemical. To be noted: 20 μM ATP (apparent Km), 8 nM kinase, 2.5 h. In outline:
as §1
On the technique in general: In TR-FRET formats the signal depends on donor and acceptor labels being close together.

Sequence of TBK1 (Q9UHD2 whole entry): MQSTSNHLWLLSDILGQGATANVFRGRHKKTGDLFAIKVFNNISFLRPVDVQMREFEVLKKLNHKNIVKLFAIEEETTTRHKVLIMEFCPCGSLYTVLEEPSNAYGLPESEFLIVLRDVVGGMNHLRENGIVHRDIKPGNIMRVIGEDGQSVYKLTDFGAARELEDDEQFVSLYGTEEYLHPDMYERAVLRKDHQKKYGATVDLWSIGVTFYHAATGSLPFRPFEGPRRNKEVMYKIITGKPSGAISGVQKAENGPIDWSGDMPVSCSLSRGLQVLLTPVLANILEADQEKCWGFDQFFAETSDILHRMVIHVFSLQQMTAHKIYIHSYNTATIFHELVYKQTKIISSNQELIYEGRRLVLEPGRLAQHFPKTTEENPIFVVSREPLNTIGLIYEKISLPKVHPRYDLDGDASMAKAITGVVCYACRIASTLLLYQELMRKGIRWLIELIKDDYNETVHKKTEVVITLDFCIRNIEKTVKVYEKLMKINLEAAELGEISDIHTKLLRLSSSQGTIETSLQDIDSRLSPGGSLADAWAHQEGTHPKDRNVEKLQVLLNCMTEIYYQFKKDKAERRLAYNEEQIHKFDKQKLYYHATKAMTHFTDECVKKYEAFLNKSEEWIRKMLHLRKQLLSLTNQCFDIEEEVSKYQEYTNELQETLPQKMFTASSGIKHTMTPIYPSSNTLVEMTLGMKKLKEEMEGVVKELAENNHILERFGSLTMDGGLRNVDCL
Sequence of IKKε (Q14164 whole entry): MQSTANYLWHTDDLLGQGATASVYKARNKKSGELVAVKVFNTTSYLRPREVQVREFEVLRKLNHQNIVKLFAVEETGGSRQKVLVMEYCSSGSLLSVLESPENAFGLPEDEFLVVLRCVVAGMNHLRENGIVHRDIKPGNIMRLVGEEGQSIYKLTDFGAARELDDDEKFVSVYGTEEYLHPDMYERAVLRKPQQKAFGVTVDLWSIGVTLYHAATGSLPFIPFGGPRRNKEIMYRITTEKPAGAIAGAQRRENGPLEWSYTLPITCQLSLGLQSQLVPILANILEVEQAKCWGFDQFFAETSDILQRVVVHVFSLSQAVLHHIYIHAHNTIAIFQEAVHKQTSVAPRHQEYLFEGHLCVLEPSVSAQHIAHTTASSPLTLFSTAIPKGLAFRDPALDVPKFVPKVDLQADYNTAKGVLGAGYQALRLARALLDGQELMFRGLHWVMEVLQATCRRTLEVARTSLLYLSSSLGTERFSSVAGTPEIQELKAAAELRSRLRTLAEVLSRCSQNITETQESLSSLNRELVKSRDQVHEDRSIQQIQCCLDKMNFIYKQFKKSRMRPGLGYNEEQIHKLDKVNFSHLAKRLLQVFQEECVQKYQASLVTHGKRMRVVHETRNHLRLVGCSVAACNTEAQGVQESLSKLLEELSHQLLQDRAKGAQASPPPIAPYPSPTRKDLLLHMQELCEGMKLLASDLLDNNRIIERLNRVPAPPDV

Regarding `N#Cc1cc(-c2ccnc(Nc3ccc4c(c3)CNC4)n2)cnc1N1CC[C@H](F)C1` [DMX-126, 5-[2-(2,3-Dihydro-1H-isoindol-5-ylamino)-pyrimidin-4-yl]-2-((S)-3-fluoro-pyrrolidin-1-yl)-nicotinonitrile], the IC50 at IKKε and at TBK1 was under 15 nM each time.
For the compound `COCCN1Cc2ccc(Nc3nccc(-c4cnc(N5CC[C@H](F)C5)c(C#N)c4)n3)cc2C1` [DMX-127, 2-((S)-3-Fluoro-pyrrolidin-1-yl)-5-{2-[2-(2-methoxy-ethyl)-2,3-dihydro-1H-isoindol-5-ylamino]-pyrimidin-4-yl}-nicotinonitrile], the IC50 at IKKε and at TBK1 was under 15 nM in each case.
As for `Cc1nccn1CC(=O)Nc1ccc(Nc2nccc(-c3cnc(N4CC[C@H](F)C4)c(C#N)c3)n2)cn1` [DMX-128, N-(5-{4-[5-Cyano-6-((S)-3-fluoro-pyrrolidin-1-yl)-pyridin-3-yl]-pyrimidin-2-ylamino)-pyridin-2-yl)-2-(2-methyl-imidazol-1-yl)-acetamide], the IC50 on IKKε and at TBK1 was under 30 nM in each case.
In the case of `CC(=O)NCC1CCCN1c1ncc(-c2ccnc(Nc3ccc(CN4CCOCC4)nc3)n2)cc1C#N` (stereo not shown) [DMX-130, N-(1-{3-Cyano-5-[2-(6-morpholin-4-ylmethyl-pyridin-3-ylamino)-pyrimidin-4-yl]-pyridin-2-yl}-pyrrolidin-2-ylmethyl)-acetamide], the IC50 at IKKε and at TBK1 was under 1000 nM each time.
In the case of `N#Cc1cc(-c2ccnc(Nc3ccc(CN4CCOCC4)nc3)n2)cnc1N1CCCC1CC(N)=O` (stereo not shown) [DMX-131, 2-(1-{3-Cyano-5-[2-(6-morpholin-4-ylmethyl-pyridin-3-ylamino)-pyrimidin-4-yl]-pyridin-2-yl}-pyrrolidin-2-yl)-acetamide], the IC50 on IKKε and at TBK1 was under 30 nM throughout.
As for `N#Cc1cc(-c2ccnc(Nc3ccc(CN4CCOCC4)nc3)n2)cnc1N1CCNC(=O)CC1` [DMX-133, 5-[2-(6-Morpholin-4-yImethyl-pyridin-3-ylamino)-pyrimidin-4-yl]-2-(5-oxo-[1,4]diazepan-1-yl)-nicotinonitrile], the IC50 on IKKε and at TBK1 was under 1000 nM in each case.
On to `CC(Nc1ncc(-c2ccnc(Nc3ccc(CN4CCOCC4)nc3)n2)cc1C#N)C(N)=O` (stereo not shown) [DMX-134, 2-{3-Cyano-5-[2-(6-morpholin-4-ylmethyl-pyridin-3-ylamino)-pyrimidin-4-yl]-pyridin-2-ylamino}-propionamide], for which the IC50 at IKKε and at TBK1 was under 100 nM throughout.
Regarding `CC(C(N)=O)N(C)c1ncc(-c2ccnc(Nc3ccc(CN4CCOCC4)nc3)n2)cc1C#N` (stereo not shown) [DMX-135, 2-({3-Cyano-5-[2-(6-morpholin-4-ylmethyl-pyridin-3-ylamino)-pyrimidin-4-yl]-pyridin-2-yl}-methyl-amino)-propionamide], the IC50 on IKKε and at TBK1 was under 100 nM in each case.
Turning to `CC(C)C(Nc1ncc(-c2ccnc(Nc3ccc(CN4CCOCC4)nc3)n2)cc1C#N)C(N)=O` (stereo not shown) [DMX-136, 2-{3-Cyano-5-[2-(6-morpholin-4-ylmethyl-pyridin-3-ylamino)-pyrimidin-4-yl]-pyridin-2-ylamino}-3-methyl-butyramide], the IC50 on IKKε and on TBK1 was under 15 nM each time.
As to `CN(CC1CCOC1)c1ncc(-c2ccnc(Nc3ccc(CN4CCOCC4)nc3)n2)cc1C#N` (stereo not shown) [DMX-137, 2-[Methyl-(tetrahydro-furan-3-ylmethyl)-amino]-5-[2-(6-morpholin-4-ylmethyl-pyridin-3-ylamino)-pyrimidin-4-yl]-nicotinonitrile], the IC50 at IKKε and at TBK1 was under 1000 nM throughout.
`N#Cc1cc(-c2ccnc(Nc3ccc(CN4CCOCC4)nc3)n2)cnc1NCC1CCOC1` (stereo not shown) [DMX-138, 5-[2-(6-Morpholin-4-ylmethyl-pyridin-3-ylamino)-pyrimidin-4-yl]-2-[(tetrahydro-furan-3-ylmethyl)-amino]-nicotinonitrile]: the IC50 is under 1000 nM at IKKε and under 100 nM on TBK1.
Turning to `N#Cc1cc(-c2ccnc(Nc3ccc(CN4CCOCC4)nc3)n2)cnc1NC1CCCC1` [DMX-139, 2-Cyclopentylamino-5-[2-(6-morpholin-4-ylmethyl-pyridin-3-ylamino)-pyrimidin-4-yl]-nicotinonitrile], the IC50 on IKKε and at TBK1 was under 100 nM each time.
For `COCCN(C)c1ncc(-c2ccnc(Nc3ccc(CN4CCOCC4)nc3)n2)cc1C#N` [DMX-140, 2-[(2-Methoxy-ethyl]-methyl-amino]-5-[2-(6-morpholin-4-ylmethyl-pyridin-3-ylamino)-pyrimidin-4-yl]-nicotinonitrile], the IC50 at IKKε and on TBK1 was under 1000 nM in each case.
On to `N#Cc1nc(-c2ccnc(Nc3ccc(NC(=O)CN4CCOCC4)nc3)n2)ccc1N1CC[C@H](O)C1` [DMX-141, N-(5-{4-[6-Cyano-5-((S)-3-hydroxy-pyrrolidin-1-yl)-pyridin-2-yl]-pyrimidin-2-ylamino}-pyridin-2-yl)-2-morpholin-4-yl-acetamide], for which the IC50 on IKKε and on TBK1 was under 100 nM in each case.
With `N#Cc1nc(-c2ccnc(Nc3ccc(NC(=O)CN4CCOCC4)nc3)n2)ccc1N1CC[C@H](F)C1` [DMX-142], the concentration for half-maximal inhibition (IC50) on IKKε and on TBK1 was under 15 nM each time.
On to `N#Cc1nc(-c2ccnc(Nc3ccc(CN4CCOCC4)nc3)n2)ccc1N1CC[C@H](F)C1` [DMX-143, 3-((S)-3-Fluoro-pyrrolidin-1-yl)-6-[2-(6-morpholin-4-ylmethyl-pyridin-3-ylamino)-pyrimidin-4-yl]-pyridine-2-carbonitrile], for which the IC50 at IKKε and on TBK1 was under 15 nM throughout.
Regarding `N#Cc1nc(-c2ccnc(Nc3ccc(CN4CCOCC4)nc3)n2)ccc1N1CC[C@H](O)C1` [DMX-144, 3-((S)-3-Hydroxy-pyrrolidin-1-yl)-6-[2-(6-morpholin-4-ylmethyl-pyridin-3-ylamino)-pyrimidin-4-yl]-pyridine-2-carbonitrile], the IC50 at IKKε and on TBK1 was under 30 nM each time.
With `N#Cc1nc(-c2ccnc(Nc3ccc(NC(=O)CN4CC[C@H](F)C4)nc3)n2)ccc1N1CC[C@H](F)C1` [DMX-145, N-(5-{4-[6-Cyano-5-((S)-3-fluoro-pyrrolidin-1-yl)-pyridin-2-yl]-pyrimidin-2-ylamino}-pyridin-2-yl)-2-((S)-3-fluoro-pyrrolidin-1-yl)-acetamide], the IC50 on IKKε and at TBK1 was under 30 nM in each case.
Regarding `N#Cc1nc(-c2ccnc(Nc3ccc(NC(=O)CN4CC[C@H](F)C4)nc3)n2)ccc1N1CC[C@H](O)C1` [DMX-146, N-(5-{4-[6-Cyano-5-((S)-3-hydroxy-pyrrolidin-1-yl)-pyridin-2-yl]-pyrimidin-2 ylamino}-pyridin-2-yl)-2-((S)-3-fluoro-pyrrolidin-1-yl)-acetamide], the IC50 at IKKε is under 100 nM; on TBK1, under 30 nM.
In the same order, the values of `N#Cc1nc(-c2ccnc(Nc3ccc(OCCN4CC[C@H](F)C4)nc3)n2)ccc1N1CC[C@H](F)C1` [DMX-147, 3-((S)-3-Fluoro-pyrrolidin-1-yl)-6-(2-{6-[2-((S)-3-fluoro-pyrrolidin-1-yl)-ethoxy]-pyridin-3-ylamino}-pyrimidin-4-yl)-pyridine-2-carbonitrile] are under 100 nM and under 30 nM.
